Test results: PMC6913882 (ACS chemical biology, 2018)
pKd: −log10 of the molar value. Where two headings read alike, the source gives them in different places.

Tests used:
Format in all cases: binding
[1] = target: T1, DNA methyltransferase-1 (mDNMT1) (Mus musculus, UniProt P13864, N1248A); test: SPR
[2] = target: T2, DNA methyltransferase-1 (mDNMT1) (Mus musculus, UniProt P13864); test: SPR
[3] = target: DNA methyltransferase-1 (mDNMT1) (Mus musculus, UniProt P13864, R1279D); test: SPR
[4] = target: T2, DNA methyltransferase-1 (mDNMT1); test: SPR; remark: listed apart in the source
[5] = target: T1, DNA methyltransferase-1 (mDNMT1); test: crystal structure at […] Å

T1 sequence (P13864 731-1602 N1248A): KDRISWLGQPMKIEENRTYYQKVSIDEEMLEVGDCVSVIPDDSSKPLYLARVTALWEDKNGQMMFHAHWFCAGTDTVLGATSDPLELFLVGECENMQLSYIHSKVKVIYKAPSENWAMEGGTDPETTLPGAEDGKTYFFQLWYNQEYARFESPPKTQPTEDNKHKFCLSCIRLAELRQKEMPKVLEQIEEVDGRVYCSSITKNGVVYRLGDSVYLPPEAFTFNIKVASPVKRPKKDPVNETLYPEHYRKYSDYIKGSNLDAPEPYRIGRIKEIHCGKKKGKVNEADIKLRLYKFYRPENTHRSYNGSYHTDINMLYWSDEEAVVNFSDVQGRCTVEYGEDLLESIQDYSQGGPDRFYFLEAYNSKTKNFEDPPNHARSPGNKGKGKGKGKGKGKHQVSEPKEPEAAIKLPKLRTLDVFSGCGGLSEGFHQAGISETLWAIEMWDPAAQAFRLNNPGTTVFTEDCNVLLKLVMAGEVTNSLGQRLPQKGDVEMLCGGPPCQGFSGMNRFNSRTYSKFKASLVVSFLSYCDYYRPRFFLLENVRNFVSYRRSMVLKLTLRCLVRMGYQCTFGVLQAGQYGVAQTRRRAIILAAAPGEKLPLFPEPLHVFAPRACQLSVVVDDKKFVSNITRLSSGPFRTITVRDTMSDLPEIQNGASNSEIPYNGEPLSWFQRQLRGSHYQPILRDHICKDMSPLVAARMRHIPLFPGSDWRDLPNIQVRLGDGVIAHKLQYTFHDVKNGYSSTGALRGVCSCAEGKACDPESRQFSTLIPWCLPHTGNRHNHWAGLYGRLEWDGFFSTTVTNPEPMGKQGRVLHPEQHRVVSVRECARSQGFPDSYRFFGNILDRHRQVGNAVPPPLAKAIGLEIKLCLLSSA
T2 sequence (P13864 731-1602): as the sequence (P13864 731-1602 N1248A) above, with A518N counted along it
DNA methyltransferase-1 (mDNMT1) (Mus musculus, UniProt P13864, R1279D), sequence (P13864 731-1602 R1279D): as the sequence (P13864 731-1602 N1248A) above, with A518N, R549D counted along it

SMILES | pKd [1] | pKd [2] | pKd [3] | pKd [4] | Kd [5]
C[S+](CC[C@H](N)C(=O)[O-])C[C@H]1O[C@@H](n2cnc3c(N)ncnc32)[C@H](O)[C@@H]1O (some centres unmarked) [AdoMet] | 5.18 | ~5.24 | 5.42 | – | –
Nc1ncnc2c1ncn2[C@@H]1O[C@H](CSCC[C@H](N)C(=O)O)[C@@H](O)[C@H]1O [AdoHcy] | – | – | – | ~6.33 | The N1248A mutant was bound to AdoHcy (Figure S5A)
